# Experimental data from ChEMBL document CHEMBL1201862, “PubChem BioAssay data set” (2004).
#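 In this assay, cells in 96-well plates receive the compound at five concentrations for 48 hours. Endpoints are linearly interpolated between the surrounding concentrations. The concentration for 50% growth inhibition is given as GI50.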 Activity calls are given as the source filed them. Cut-off read from the data, not from the text of the source: active = GI50 up to about 1.1 µM and inactive = higher. Non-standard residues stand in square brackets, D forms with d. Residues, ends and D or L forms follow the SMILES beside them. ξ: configuration not given here. ξLac(3-iPr) = CC(C)CC(O)C(=O)O; NMeV = CN[CH](C(=O)O)C(C)C; NMeA = CN[CH](C)C(=O)O; βAla = NCCC(=O)O
# Assays:
# Test in all cases: NCI-60 cell line screen, 48 h
# HT-29 = tested on: HT-29
# LOX IMVI = tested on: LOX IMVI
# SK-OV-3 = tested on: SK-OV-3
# UO-31 = tested on: UO-31
# NCI-H226 = tested on: NCI-H226
# OVCAR-4 = tested on: OVCAR-4
# SK-MEL-28 = tested on: SK-MEL-28
# NCI/ADR-RES = tested on: NCI/ADR-RES
# SR = tested on: SR
# SF-539 = tested on: SF-539
# 786-0 = tested on: 786-0
# SK-MEL-5 = tested on: SK-MEL-5
# T47D = tested on: T47D
# KM12 = tested on: KM12
# RPMI-8226 = tested on: RPMI-8226
# RXF 393 = tested on: RXF 393
# MOLT-4 = tested on: MOLT-4
# OVCAR-8 = tested on: OVCAR-8
# UACC-257 = tested on: UACC-257
# UACC-62 = tested on: UACC-62
Compound,GI50 (HT-29),GI50 (LOX IMVI),GI50 (SK-OV-3),GI50 (UO-31),GI50 (NCI-H226),GI50 (OVCAR-4),GI50 (SK-MEL-28),GI50 (NCI/ADR-RES),GI50 (SR),GI50 (SF-539),GI50 (786-0),GI50 (SK-MEL-5),GI50 (T47D),GI50 (KM12),GI50 (RPMI-8226),GI50 (RXF 393),GI50 (MOLT-4),GI50 (OVCAR-8),GI50 (UACC-257),GI50 (UACC-62)
O=[N+]([O-])c1cc(C(F)(F)F)cc2n[se]nc12,7.29 µM (inactive),5.53 µM (inactive),13.6 µM (inactive),5.53 µM (inactive),20.6 µM (inactive),1.97 µM (inactive),2.22 µM (inactive),2.12 µM (inactive),1.36 µM (inactive),3.89 µM (inactive),2.21 µM (inactive),3.24 µM (inactive),3.17 µM (inactive),9.33 µM (inactive),1.21 µM (inactive),2.3 µM (inactive),1.48 µM (inactive),1.97 µM (inactive),2.16 µM (inactive),4.15 µM (inactive)
Cc1ccc2nc(Cl)c(/C=N/N3C(=O)/C(=C/Cc4ccco4)N=C3c3ccccc3)cc2c1,32.7 µM (inactive),27.4 µM (inactive),> 100 µM (inactive),23.7 µM (inactive),> 54.6 µM (inactive),51.6 µM (inactive),58.7 µM (inactive),28.4 µM (inactive),> 69.3 µM (inactive),43.6 µM (inactive),20.4 µM (inactive),56.4 µM (inactive),> 50 µM (inactive),3.33 µM (inactive),27 µM (inactive),2.54 µM (inactive),58.6 µM (inactive),34.4 µM (inactive),32.7 µM (inactive),60.5 µM (inactive)
C[C@@]12C[C@@H](c3ccccc3O1)N1CCSC1=N2,> 100 µM (inactive),> 100 µM (inactive),> 100 µM (inactive),> 100 µM (inactive),> 100 µM (inactive),> 100 µM (inactive),> 100 µM (inactive),> 100 µM (inactive),> 100 µM (inactive),> 100 µM (inactive),> 100 µM (inactive),> 100 µM (inactive),> 100 µM (inactive),> 100 µM (inactive),> 100 µM (inactive),> 100 µM (inactive),75.5 µM (inactive),> 100 µM (inactive),> 100 µM (inactive),> 100 µM (inactive)
O=C(Nc1ccccc1)c1nn(-c2cc(S(=O)(=O)O)c([N+](=O)[O-])cc2Cl)[n+](-c2cc(S(=O)(=O)[O-])c([N+](=O)[O-])cc2Cl)n1,> 100 µM (inactive),38.3 µM (inactive),> 100 µM (inactive),> 100 µM (inactive),> 100 µM (inactive),> 100 µM (inactive),> 100 µM (inactive),> 100 µM (inactive),> 100 µM (inactive),> 100 µM (inactive),> 100 µM (inactive),> 100 µM (inactive),> 100 µM (inactive),> 100 µM (inactive),> 100 µM (inactive),> 100 µM (inactive),> 100 µM (inactive),,> 100 µM (inactive),> 100 µM (inactive)
C[N+](C)(C)CCCCCc1c2nc(c(CCCCC[N+](C)(C)C)c3ccc([nH]3)c(CCCCC[N+](C)(C)C)c3nc(c(CCCCC[N+](C)(C)C)c4ccc1[nH]4)C=C3)C=C2,> 100 µM (inactive),> 100 µM (inactive),> 100 µM (inactive),> 100 µM (inactive),> 100 µM (inactive),> 100 µM (inactive),> 100 µM (inactive),> 100 µM (inactive),> 100 µM (inactive),> 100 µM (inactive),> 100 µM (inactive),> 100 µM (inactive),> 100 µM (inactive),> 100 µM (inactive),> 100 µM (inactive),2.77 µM (inactive),> 100 µM (inactive),> 100 µM (inactive),> 100 µM (inactive),> 100 µM (inactive)
CCC(C)C1NC(=O)C2CCCN2C(=O)C(CC(C)C)OC(=O)CCNC(=O)C(C)N(C)C(=O)C(C(C)C)N(C)C1=O (centres undefined) (cyclo([ξLac(3-iPr)]PI[NMeV][NMeA][βAla]); configuration not given here),1.32 µM (inactive),1.11 µM (active),20.6 µM (inactive),6.84 µM (inactive),> 21.5 µM (inactive),> 50.7 µM (inactive),36.1 µM (inactive),16.1 µM (inactive),0.766 µM (active),7.1 µM (inactive),2.09 µM (inactive),1.21 µM (inactive),4.68 µM (inactive),3.44 µM (inactive),1.29 µM (inactive),3.83 µM (inactive),1.83 µM (inactive),3.48 µM (inactive),6.32 µM (inactive),2.21 µM (inactive)
